Experimental data published in patent US20060189684A1, “3-Phenylfuran-2-one derivatives as cox-2 inhibitor” (priority 2003, published 2006).

Columns and labels:
COX-1 = biological target: T1, COX-1 (Homo sapiens, UniProt P23219); assay: COX-1 activity in human whole blood (TXB2, calcium ionophore A23187); assay type: cell-based; details: 24 h at 37° C., A23187 25 μM, TXB2 by ELISA
T1 construct: from tissue; host or cells: fresh heparinized human whole blood from healthy volunteers
Experimental: (§1) COX-1 and COX-2 Activities in Human Whole Blood
Fresh blood from healthy volunteers who had not taken any non-steroidal anti-inflammatory drugs for at least 7 days prior to blood extraction was collected in heparinized tubes (20 units of heparin per ml). For the COX-1 activity determination, 500 μl aliquots of blood were incubated with either 5 μl vehicle (dimethylsulphoxide) or 5 μl of a test compound solution for 24 h at 37° C. Calcium ionophore A23187 (25 μM) was added 20 min before the incubation was ended. Plasma was separated by centrifugation (10 min at 13000 rpm) and kept at −30° C. until TXB2 levels were measured using an enzyme immunoassay kit (ELISA).
The effect of the compounds was evaluated by incubating each compound at five to six different concentrations with triplicate determinations. IC50 values were obtained by non-linear regression using InPlot, GraphPad software on an IBM computer.

COX-2 = biological target: T2, COX-2 (Homo sapiens, UniProt P35354); assay: COX-2 activity in human whole blood (PGE2, LPS-induced); assay type: cell-based; details: for IC50: human whole blood, LPS 10 μg/ml, 24 h at 37° C., PGE2 by ELISA; for Ratio COX-1/COX-2: ratio of human whole blood IC50 values
T2 construct: blood were incubated in the presence of LPS (10 μg/ml) for 24 h at 37° C. in order to induce the COX-2 expression; from tissue; host or cells: fresh heparinized human whole blood from healthy volunteers, LPS-stimulated
T2 sequence (P35354 18-604): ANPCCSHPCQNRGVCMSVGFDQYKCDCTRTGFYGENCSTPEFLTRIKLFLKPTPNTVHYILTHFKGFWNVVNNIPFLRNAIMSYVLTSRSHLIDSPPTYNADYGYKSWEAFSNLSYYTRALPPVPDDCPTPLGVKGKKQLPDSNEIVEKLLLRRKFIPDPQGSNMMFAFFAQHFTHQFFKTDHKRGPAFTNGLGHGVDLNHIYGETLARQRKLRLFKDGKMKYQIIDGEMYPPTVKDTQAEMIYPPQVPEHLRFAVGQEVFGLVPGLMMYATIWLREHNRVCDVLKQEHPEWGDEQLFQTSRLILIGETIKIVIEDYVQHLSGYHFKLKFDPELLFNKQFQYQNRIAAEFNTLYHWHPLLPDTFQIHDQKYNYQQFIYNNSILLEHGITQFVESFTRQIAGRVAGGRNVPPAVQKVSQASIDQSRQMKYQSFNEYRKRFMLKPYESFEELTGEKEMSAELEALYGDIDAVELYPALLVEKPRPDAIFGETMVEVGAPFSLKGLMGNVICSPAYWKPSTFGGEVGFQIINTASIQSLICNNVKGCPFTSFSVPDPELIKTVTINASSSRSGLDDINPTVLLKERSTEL
Experimental: as §1
For the COX-2 activity determination, 500 μl aliquots of blood were incubated in the presence of LPS (10 μg/ml) for 24 h at 37° C. in order to induce the COX-2 expression (Patriagnani et al., J. Pharm. Exper. Ther. 271; 1705-1712 (1994)). Plasma was separated by centrifugation (10 min at 13000 rpm) and kept at −30° C. until PGE2 levels were measured using an enzyme immunoassay kit (ELISA). The effects of inhibitors were studied by incubating each compound (5 μl aliquots) at five to six different concentrations with triplicate determinations in the presence of LPS for 24 hours. IC50 values were obtained by non-linear regression using InPlot, GraphPad software on an IBM computer.

T1 sequence (P23219 24-599): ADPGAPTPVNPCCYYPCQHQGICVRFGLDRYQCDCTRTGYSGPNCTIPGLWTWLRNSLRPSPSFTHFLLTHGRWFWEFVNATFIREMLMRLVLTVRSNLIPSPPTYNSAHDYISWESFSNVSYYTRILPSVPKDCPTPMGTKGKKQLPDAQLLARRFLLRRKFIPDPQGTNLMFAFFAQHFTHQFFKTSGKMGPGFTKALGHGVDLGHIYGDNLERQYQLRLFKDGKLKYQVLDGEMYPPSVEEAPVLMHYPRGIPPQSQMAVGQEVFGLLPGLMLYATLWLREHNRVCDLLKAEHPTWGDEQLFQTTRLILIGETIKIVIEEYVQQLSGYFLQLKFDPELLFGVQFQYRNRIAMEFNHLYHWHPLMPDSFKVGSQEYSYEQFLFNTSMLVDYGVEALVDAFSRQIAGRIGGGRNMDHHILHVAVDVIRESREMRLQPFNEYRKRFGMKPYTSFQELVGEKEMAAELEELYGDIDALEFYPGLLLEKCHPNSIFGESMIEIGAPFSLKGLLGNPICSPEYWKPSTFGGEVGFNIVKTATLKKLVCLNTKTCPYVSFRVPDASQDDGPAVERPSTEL

SMILES	IC50 (COX-1) [µM]	IC50 (COX-2) [µM]	Ratio COX-1/COX-2 (COX-2)
C[S+]([O-])c1ccc(C2=C(c3ccccc3)C(=O)OC2)cc1 (racemic) [4-[4(methylsulfinyl)phenyl]-3-phenylfuran-2(5H)-one (racemate), 4-[4-(Methylsulfinyl)phenyl)-3-phenylfuran-2(6H)-one]	33.4		
C[S@@+]([O-])c1ccc(C2=C(c3ccccc3)C(=O)OC2)cc1 [4-[4(methylsulfinyl)phenyl]-3-phenylfuran-2(5H)-one (Enantiomer 1a)]	32.2	4.22	7.6
C[S@+]([O-])c1ccc(C2=C(c3ccccc3)C(=O)OC2)cc1 [4-[4(methylsulfinyl)phenyl]-3-phenylfuran-2(5H)-one (Enantiomer 1b)]	37.8	2.1	18
